Source: patent US20230312587A1, “PTERIDINONE COMPOUNDS AND USES THEREOF” (Vertex Pharmaceutical Incorporated, priority 2018, published 2023)
Like-named read-outs stand apart in the source and are kept apart here.

What was measured:
[1] = tested on: HepG2 WFS1 KO; test: In vitro cell viability (CellTiter-Glo), HepG2 WFS1 KO; format: cell-based; conditions: for IC50: 96 hours
From the text: A double cleavage strategy was employed to remove large fragments from the WFS1 locus. Suitable target sites in WFS1 exon 8 were first selected using CRISPR design software to rank suitable target sites and computationally predict off-target sites for each intended target. Six top guide RNA sequences are identified and screened for activity using the Surveyor Mutation Detection Kit (Integrated DNA Technologies). Then, the best 2 guide RNAs were cloned into GeneArt OFP CRISPR nuclease vectors (Thermofisher, Cat #A21174) separately and co-transfected into HepG2 cells using nucleofection (4D Nucleofector X, Lonza). Cells were sorted by FACS 48 hrs later to enrich for the OFP positive cell population. The OFP positive cell population were plated into 96-well plates at 0.5-5 cells/well to isolate clonal cell lines. After allowing cells to expand for 2-3 weeks, plates were inspected for presence of colonies. When colonies became more than 70% confluent, they were dissociated with trypsin and were further expanded. Cell clones with homozygous double cleavage of WFS1 exon 8 were detected with PCR and confirmed with DNA sequencing.
HEK293 cells containing empty pCLPCx vector (HEK293 empty), HEK293 cells stably over-expression WFS1 (HEK293 WFS1), HepG2, and HepG2 cells where WFS1 was depleted via CRISPR/Cas9 (HepG2 WFS1 KO) cells were plated into 96-well black plates (Corning, product #3904) in 100 microliters of complete DMEM cell culture media [DMEM (Life Technologies, product #11960-051) media supplemented with 10% FBS (Hyclone, catalog #SH30071.03), antimycotic/antibiotic (Life Technologies, product #15240-062), and Glutamax (Life Technologies, product #35050-061)] at 1,000 (HEK293) or 5,000 (HepG2) cells per well. Cells were allowed to attach and grow overnight, after which compounds are added at various concentrations. Cell viability was assessed 96 hrs after compound addition with CellTiter-Glo reagent (Promega, catalog #G7570) according to manufacturer's protocol and measurement on a Pherastar luminescence plate reader (BMG Labtech).
To determine the effect of WFS1 depletion on compound mediated inhibition of cell viability, parental HepG2 cells and HepG2 cells where WFS1 was deleted by CRISPR/Cas9 were exposed to increasing concentrations of either Compound 136 or Compound 253 for 96 hours after which time viability was determined using Cell Titer Glo reagent (Promega). […] The IC50s for the viability of both the HepG2 parental and WFS1 knockout cells are summarized in Table 47: A<0.5 μM; 0.5 μM≤<2.0 μM; 2.0 μM≤C<10.0 μM; D≥[…].

[2] = target: Plk1 (Homo sapiens (Human), UniProt P53350); test: PLK1 inhibition assay (radioactive-phosphate incorporation); format: biochemical; conditions: Ki(app), read-out: PLK1 - 33P.ENZ - CB 10 Ki
Summary of the method: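 Radioactive-phosphate incorporation with 15 nM Plk1 and 9 µM Sam68 substrate, 20 µM [γ-33P]ATP, in 25 mM HEPES pH 7.5, 10 mM MgCl2, 25 mM NaCl, 2 mM DTT, 1.5% DMSO, room temperature, 45 min. Stopped with TCA/cold ATP, filtered, scintillation counted. Ki(app) from non-linear regression of background-corrected initial rates.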

[3] = tested on: non-small cell lung cancer (NSCLC) adenocarcinoma line D33966; test: In vivo efficacy, NSCLC patient derived xenograft OD33966; set-up: species or system nu/nu mice; conditions: NSCLC PDX OD33966, oral, 100 mpk qd, treatment day 14
Experimental: Female immune deficient mice (Charles River, 4-6 wks age) were anesthetized with Ketamine-Xylazine (140 mg/kg-14 mg/kg ip) and shaved. Puralube eye ointment was applied to the eyes to prevent desiccation of the corneas. Betadine and 70% ethanol was applied to the shaved location to sterilize the skin at the location of the incision. The animals were placed in a biosafety cabinet for the duration of the surgery. Using scissors, an 8 to 10 mm incision was made in the lateral flank of the skin. A tumor fragment weighing between 50 and 150 mg was placed under the skin at the incision site using forceps, and staples were used to close the incision. The staples were removed 5 to 7 days after surgery. Starting approximately two weeks after implantation, animals were weighed, and tumors were measured using caliper twice weekly. Tumor volume was calculated using the formula: volume=length×width^2×0.52.
Compound administration began when xenografts reached approximately 100-300 mm3 and continued until control xenografts reached […] of the animal's body weight. Test compounds were administered orally by gastric gavage. Percent tumor growth inhibition (TG) was calculated on the indicated treatment day. Percent TGI is defined as: [1−(del T/del C)]×100%, where del T is the final minus initial average volumes of the treated group, and del C is the final minus initial average volumes of the control group. […] The tested compounds were administered orally. Vehicle control consisted of either 0.5% methylcellulose/0.1% sodium lauryl sulfate or 20% captisol. Tumor volumes were determined by caliper measurement twice a week.

Plk1, sequence (P53350 whole entry, species assumed): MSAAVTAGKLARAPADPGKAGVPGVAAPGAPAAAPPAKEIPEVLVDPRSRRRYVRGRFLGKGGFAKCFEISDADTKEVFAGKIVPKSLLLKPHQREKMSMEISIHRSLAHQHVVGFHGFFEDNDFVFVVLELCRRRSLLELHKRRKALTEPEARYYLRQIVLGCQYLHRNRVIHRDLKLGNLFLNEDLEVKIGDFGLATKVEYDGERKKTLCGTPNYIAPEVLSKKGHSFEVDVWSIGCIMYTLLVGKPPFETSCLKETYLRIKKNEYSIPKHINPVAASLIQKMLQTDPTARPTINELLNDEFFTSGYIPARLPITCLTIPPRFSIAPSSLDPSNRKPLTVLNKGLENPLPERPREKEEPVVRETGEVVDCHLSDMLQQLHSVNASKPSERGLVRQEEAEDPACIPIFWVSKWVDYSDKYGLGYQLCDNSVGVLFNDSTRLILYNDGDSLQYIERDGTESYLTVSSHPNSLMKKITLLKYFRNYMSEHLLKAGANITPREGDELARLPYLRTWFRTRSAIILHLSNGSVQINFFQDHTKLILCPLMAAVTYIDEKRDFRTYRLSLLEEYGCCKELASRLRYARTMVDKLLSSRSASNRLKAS

With `Cc1nc(NCc2cnn(Cc3ccc(C(F)(F)F)nc3)c2)nc2c1NC(=O)[C@H](C)N2C` [Compound 136, (7S)-4,7,8-trimethyl-2-(((1-((6-(trifluoromethyl)pyridin-3-yl)methyl)-111-pyrazol-4-yl)methyl)amino)-7,8-dihydropteridin-6(5H)-one] the IC50 ([1]; HepG2 WFS1 knockout, read-out: HepG2 WFS1 KO viability) was ≥ 10 µM, the IC50 ([1]; cell viability, HepG2 WFS1 KO, Cell Titer Glo, read-out: IC50) was > 27 µM and the IC50 ([1]; cell viability, HepG2 WFS1 KO, read-out: IC50 class) was ≥ 10 µM. The “shift in IC50 on depletion of WFS1 from HepG2 cells” value ([1]; cell viability, WFS1 KO vs parental HepG2, 96 hours) was “greater than 100 fold”, the Ki [2] was > 4 µM and the “% TGI” value [3] was 106.65%.
